Laboratory results as given in patent US6399380B1, “Native-state histoculturing skin extracellular support” (Anti-Cancer, Inc., priority 1991, dated 2002).

Assays:
histocultured mouse skin = system: histocultured mouse skin
Method: Samples of skin having an external surface area of about 10 mm^2 and a thickness of about one to two mm were excised from an athymic nude mouse and placed on a GELFOAM™ matrix immersed in Eagle's MEM containing about 0.2 mg/ml of gentamycin and about 10% (v/v) fetal bovine serum. Prior to use the matrix was soaked in the medium for four hours at 37° C. to equilibrate the matrix in the medium.
The skin samples were maintained on the matrix in the medium at a temperature of about 37° C. in a gassed incubator under a mixture of 95% air and 5% CO2. Viability was assessed as the uptakes of an indicator specific for viable cells (BCECF-AM) and an indicator specific for dead cells (propidium iodide, PI), or as the uptake of [^3H]-thymidine.
The fluorescent dye indicators BCECF-AM and PI (Molecular Probes, Eugene, Oreg.) were added directly to the medium at a final concentration of 5 micromolar. Incorporation of the dyes was microscopically evaluated about 30 min following addition of the dyes to the medium by optical scanning using an MRC-600 Confocal Imaging System (Bio-Rad, Richmond, Calif.) mounted on a Nikon Epithet equipped with a 10× Plane objective. Samples were observed using an optical section of about 4 microns.
Skin samples from athymic nude mice were cultured according to the method of Example 1. Viability was assessed before and after the addition of putative toxins using BCECF-AM and [^3H]-thymidine as indicators specific for viable cells and PI as an indicator specific for dead cells. The uptake of these indicators was determined according to the methods of Example 1.
An initial assessment of viability was made 2 days after initiation of the skin culture using BCECF-AM and PI. Immediately following this initial assessment, various concentrations of the toxins ethanol, doxorubicin or sodium hypochlorite were contacted with the skin samples. The final concentrations of the toxins varied from about 0.5% to about 70% (v/v) for ethanol, from about 29 to about 725 mgs/ml for doxorubicin and from about 0.6% to about 60.0% (v/v) for sodium hypochlorite.
The skin samples were contacted with ethanol, doxorubicin and sodium hypochlorite for about 5 min., for about 24 hours and for about 2 hours respectively. Following these contact times, the toxin-containing medium was replaced with fresh, non-toxin-containing medium and the skin samples reassessed for viability using BCECF-AM and PI Viability was assessed in the same region of the skin sample before and after contact with the toxin.
In this study, toxicity was expressed as a percent of killed cells. The fraction of killed cells (PI-positive cells) with respect to total cells (PI-positive (red) plus BCECF-AM-positive (green) cells) in treated cultures is measured with confocal fluorescence scanning microscopy and is compared to untreated controls to determine cytotoxicity. The percent of killed cells is expressed as the number of red cells after treatment minus the number of red cells before treatment, divided by the total number of cells (green cells after treatment plus red cells after treatment).
The effects of doxorubicin and sodium hypochlorite on skin toxicity were determined in an identical manner to that described above for ethanol.

[1] = system: dermal, epidermal and follicle cells of histocultured mouse skin; experiment: Skin toxicity assay: [3H]-thymidine uptake (percent cell proliferation), autoradiography; assay type: cell-based; conditions: FIG. 6
Method: [^3H]-Thymidine was added directly to the medium at a final concentration of 4 μCI/ml. Skin samples were maintained in the thymidine-containing medium for 3 days. After the 3 days, the skin cultures were washed with phosphate-buffered saline, pH 7.0, placed in histology capsules and fixed in 10% (v/v) formalin. The fixed skin cultures were then dehydrated, embedded in paraffin, sectioned and placed on slides by standard methods well known to those of skill in the histology art. The slides were deparaffinized, coated with Kodak NTB-2 emulsion, exposed for 5 days and developed. […]
In addition, skin samples contacted with doxorubicin were assessed for viability using the uptake of [^3H]-thymidine measured after 24 hr of toxin contact.
In this study, toxicity was expressed as percent cell proliferation. Percent cell proliferation was calculated as the ratio of, (1) percentage of cells labeled with [^3H]-thymidine to total cells in doxorubicin treated samples compared to (2) the percentage of [^3H]-thymidine labeled cells to total cells in control, untreated skin samples.

dorsal skin of mice = conditions: mouse, in vivo
Method: The in vivo assessment of toxicity was determined using a standard skin irritation test as set forth below.
Small pieces of gauze paper (about 1.5 cm^2 size), which have been soaked in different concentrations of sodium hypochlorite, were tightly put on 3 different sites on the dorsal surface of the mice. Skin sites were scored on a 1 to 4 scale for […] and edema ½ hour and 1 hour after removal of the sodium hypochlorite. The primary irritation index (PII) for each concentration of sodium hypochlorite was derived from the following formula: […]

SMILES: COc1cccc2c1C(=O)c1c(O)c3c(c(O)c1C2=O)C[C@@](O)(C(=O)CO)C[C@@H]3O[C@H]1C[C@H](N)[C@H](O)[C@H](C)O1 [doxorubicin]
- toxicity (percent of killed cells) as a function of concentration (histocultured mouse skin; doxorubicin about 29 to about 725 mgs/ml, 24 hours, FIG. 5): relatively proportional to the concentration of doxorubicin
- percent cell proliferation ([3H]-thymidine labeled cells relative to control) ([1]; 24 hour exposure to doxorubicin): dose-dependent decrease in cell proliferation
- cell type in which toxicity was most pronounced ([1]; 24 hour exposure, dermal, epidermal and follicle cells compared): most pronounced in hair follicle cells

SMILES: OCl [sodium hypochlorite]
- threshold of toxicity (percent of killed cells) (histocultured mouse skin; athymic nude, mouse): about 0.6%
- threshold of toxicity (primary irritation index) (dorsal skin of mice): about 0.6%

SMILES: CCO [ethanol]
- viability of skin sample after vs before treatment (live/dead staining) (histocultured mouse skin; 0.5% (v/v) or 5.0% ethanol, about 5 min, skin histocultured 2 days, FIG. 3): a large number of cells died
- relative toxicity (loss in viability) (histocultured mouse skin; 5.0% vs 0.5% ethanol, about 5 min, FIG. 3): more toxic (a greater loss in viability) than was 0.5% ethanol
- loss of viability (histocultured mouse skin; 30%, 50% and 70% ethanol, data not shown): increasing losses of viability above the extent of losses observed using 5% ethanol
- percent of killed cells (toxicity) as a function of concentration (histocultured mouse skin; ethanol about 0.5% to about 70% (v/v), 5 minutes, skin histocultured two days, FIG. 4): increases as the concentration of ethanol increases
